Results from US20080057039A1, “Diagnostic and Therapeutic Treatments Related to Mitochondrial Disorders” (priority 2003, published 2008).
Entries after “also recorded” stand apart in the source; their conditions may differ.

Columns and labels:
[1] = system: Jurkat cells; assay: Fas-induced apoptosis, cell cycle analysis by flow cytometry; type: cell-based, human; conditions: for effect on apoptosis induction by FasL constructs: Jurkat cells, FasL constructs plus inhibitor
Source text: (§1) SH-SY5Y neuroblastoma cells are insensitive to Fas-mediated apoptosis. We used the well-characterized Fas-positive human neuroblastoma cell line SH-SY5Y to investigate Fas signaling in neuronal cells. Because Fas is best known as an inducer of apoptosis, we began by examining anti-Fas-treated SH-SY5Y cells for evidence of Fas-induced apoptosis. Jurkat cells, a human T cell leukemia line considered a model for Fas-mediated apoptosis (Wilson, D. et al., 1999, Cell Immunol., 194:67), provided a positive control. We confirmed that SH-SY5Y cells expressed cell surface Fas by flow cytometry. We then performed cell cycle analysis by flow cytometry on untreated and anti-Fas-treated Jurkat and SH-SY5Y cells after 48 hours in culture.
(§2) As previously reported, Jurkat T cells underwent Fas-induced apoptosis (7.6+2.8% apoptotic cells in the untreated cultures versus 31.3±3.5% in the anti-Fas antibody-treated cultures) (Wilson, D. et al., 1999, Cell Lnmunol., 194:67). […] We then treated the cells with Fas Ligand (FasL) constructs, consisting of FasL fused to a linker peptide and a FLAG-tag that facilitate formation of active trimers. […] Conversely, blockade of the ERK pathway by the MEK1-specific inhibitor PD98059 had no effect on Jurkat apoptosis. […] In addition, we examined replicate populations of cells for evidence of caspase 8 cleavage as an indication of Fas-induced apoptosis, after 4 hours in culture with control antibodies or anti-Fas antibodies.

[2] = system: SH-SY5Y neuroblastoma cells; assay: as above; type: cell-based, human; conditions: for effect on apoptosis of FasL-treated neuroblastoma cells: SH-SY5Y, FasL constructs plus inhibitor
Source text: as §1, §2

[3] = system: caspase 8; assay: caspase 8 cleavage in Jurkat cells; type: cell-based, human; conditions: for effect on caspase 8 cleavage: Jurkat cells stimulated through Fas, plus inhibitor
Source text: as §2
(§3) Furthermore, SH-SY5Y cells expressed dramatically less caspase 8 than did Jurkat cells, although they expressed similar levels of FLIP and of Fas. Low levels of caspase 8 expression and inefficient (or non-physiological) Fas ligation by anti-Fas antibody could have masked potential Fas-induced caspase 8 cleavage in SH-SY5Y cells. Therefore, we stimulated the cells with FasL constructs and normalized protein loading to equivalent caspase 8 (instead of equivalent total protein).

[4] = system: ERK; assay: ERK activation (dual phosphorylation at threonine 202 and tyrosine 204) in SH-SY5Y cells; type: cell-based, human; conditions: for effect on Fas-induced ERK activation: plus inhibitor
Description: Fas engagement induces ERK activation and p35 expression in SY-SHSY cells. Fas cross-linking has been reported to activate ERK in glioma cells (Shinohara, H. et al., 2000, Cancer Research, 60:1766). […] Fas-induced ERK activation was inhibited by PD98059, but appeared to be caspase 8 independent as it was not affected by […]. ERK activation was detected within five minutes of Fas engagement, and persisted for up to 150 minutes.

[5] = system: DRG neurons; assay: dorsal root ganglia (DRG) neurite outgrowth assay; type: cell-based, mice; conditions: for effect on Fas-induced neurite growth: DRGs stimulated through Fas; for neurite outgrowth from DRGs: neonatal mice
Source text: We have shown that engaging Fas on sensory neurons induces a rapid, extensive regenerative response. We used the dorsal root ganglia (DRG) neurite outgrowth assay to determine whether Fas engagement could induce axon regeneration in vitro. […] We cultured DRGs with anti-Fas antibodies, with isotype matched control antibodies (as a negative control) or with NGF (as a positive control).
Fas engagement induces neurite outgrowth and p35 upregulation in dorsal root ganglia (D)RG) explants. To determine whether Fas-induced activation of the ERK/p35 pathway in neuroblastoma cells correlated with neurite sprouting in primary neurons, we used the DRG neurite outgrowth assay, a well characterized model for axon regeneration from primary neurons in vitro (Harada, T. et al., 2001, Nat. Cell Biol., 3:453). DRGs are collections of sensory neuron cell bodies, together with supporting Schwann cells and fibroblasts. […] We examined Fas expression selectively on the DRG neurons by flow cytometric analysis of DRG cells positive for neuron-specific tubulin III, thus excluding Schwann cells and other non-neural cell types from the analysis. […] The uniform shift in fluorescence intensity, without the presence of distinct subpopulations, indicates uniform Fas expression on the DRG neurons (geometric mean fluorescence intensity shift from 10.95 with negative control staining to 22.39 with anti-Fas staining). DRG explants were cultured with anti-Fas antibodies, with isotype-matched control antibodies (as a negative control), or with NGF (as a positive control). […] Fas-induced neurite outgrowth was indistinguishable from NGF-induced neurite outgrowth kinetically and by morphological criteria (neurite numbers, length, and branching), and could not be differentiated by blinded observers. Fas-induced neurite growth was robust and prolific, completely filling the wells of 96-well plates after two weeks in culture. […] Thus, Fas engagement induced a rapid and prolific neurite outgrowth response in primary sensory neurons.

[6] = system: p35; assay: p35 upregulation in DRG explants (Western blots); type: cell-based, mice; conditions: 24-hour stimulation, p35 normalized to actin
Source text: As in SH-SY5Y neurons, Fas engagement induced p35 upregulation in DRG explants after 24-hour stimulation. […] Fas-induced neurite growth is independent of NGF and caspase 8 function, but dependent on ERK activation.

[7] = system: B7.1; assay: cell surface B7.1 on C17.2 neuronal stem cells after H2O2; type: cell-based, mouse; conditions: C17.2 cells, 24-hr exposure, 0.25 mM
[8] = system: Fas (CD95); assay: cell surface Fas on C17.2 neuronal stem cells after H2O2; type: cell-based, mouse; conditions: C17.2 cells, 24-hr exposure, 0.25 mM
Description: Non-permeabilized cells were stained with antibodies to the cell surface receptors Fas (CD95) (Pharmingen) or with antibodies to uncoupling proteins (anti-UCP2 antibody) (Alpha Diagnostic International). Antibodies for both the isotype control and actual stain were added to the cell suspension, mixed, and then placed on ice for and incubation of 25 minutes in the dark. Subsequently the cells were centrifuged at 300×g for 5 minutes and the supernatant removed. The cells were washed one time with 100 μL of PBS/2% FBS and then transferred into flow cyotmetric tubes containing 500 μL of PBS/2% FBS for analysis.
We have measured the levels of intracellular H2O2 in these cells. […] C17.2 cells from passage 15 contained 4-fold higher amount of UCP-2 than C17.2 cells at passage 11. Ts65Dn mice and controls fed regular and fatty acid enriched diet. The effects of dietary supplementation with alpha lipoic acid (LA) and […] (ALCAR) on the Ts65Dn mouse and the strain matched control animals have been examined. […] We attempted this supplementation with old (18 months) Ts65Dn mice.
C17.2 mouse neuronal stem cells (a kind gift from Dr. Evan Schnyder, Harvard) were cultured as described in the Methods above. The cells were treated or not with H2O2 at the concentration indicated on the graphs of FIG. 2. […]

[9] = system: p35; assay: Fas-induced p35 expression in SH-SY5Y cells; type: cell-based, human; conditions: anti-Fas antibodies plus inhibitor
Description: Sustained activation of ERK for more than 80 minutes was necessary and sufficient for NGF-inducible neurite outgrowth, and p35 upregulation driven by sustained ERK activation is an essential component of this pathway (Pang, L. et al., 1995, J. Biol. Chem., 270:13585; Harada, T. et al., 2001, Nat. Cell Biol., 3:453). Thus, we examined SH-SY5Y cells for Fas-induced p35 expression. […] Thus, Fas engagement-induced sustained ERK activation and MEKI / ERK-dependent p35 expression in SH-SY5Y neuroblastoma cells.

[10] = system: caspase 8; assay: caspase 8 cleavage in SH-SY5Y cells; type: cell-based, human
Source text: as §2, §3

z-IETD-frnk
effect on apoptosis induction by FasL constructs [1]: completely abrogated
effect on apoptosis of FasL-treated neuroblastoma cells [2]: Neither IETD nor PD98059 had any effect
effect on caspase 8 cleavage [3]: reduced to background levels
effect on Fas-induced ERK activation [4]: not affected
effect on Fas-induced neurite growth [5]: not affected; also recorded: not blocked

nerve growth factor [NGF]
p35 upregulation compared to untreated DRGs [6]: 3.3 fold
neurite outgrowth from DRGs ([5]; DRG explants): sprout neurites
neurite outgrowth in dissociated DRG cultures ([5]; glial growth suppressed with cytosine arabinoside): induced
neurite outgrowth from DRGs of lpr mice ([5]; lpr mice, low to absent Fas expression): delayed and diminished neurite outgrowth

OO [H2O2]
cell surface expression of B7.1 [7]: increased
cell surface expression of Fas (CD95) [8]: increased

COc1cccc(-c2cc(=O)c3ccccc3o2)c1N [PD98059]
effect on apoptosis induction by FasL constructs [1]: no effect
effect on apoptosis of FasL-treated neuroblastoma cells [2]: Neither IETD nor PD98059 had any effect
effect on Fas-induced p35 upregulation [9]: prevented
effect on caspase 8 cleavage [3]: unaffected
effect on Fas-induced ERK activation [4]: inhibited
toxicity to other DRG cells such as Schwann cells ([5]; DRG explants): not toxic
effect on Fas-induced neurite growth [5]: prevented
effect on NGF-induced neurite outgrowth ([5]; DRGs stimulated with NGF): blocked
toxicity to DRG neurons ([5]; inhibitor washed out after two days, restimulated with NGF or FasL constructs): did not kill the neurons

B1: FasL constructs: FasL fused to a linker peptide and a FLAG-tag that facilitate formation of active trimers (protein, UniProt P48023 130-281, looked up)
Tumor necrosis factor ligand …: QIGHPSPPPEKKELRKVAHLTGKSNSRSMPLEWEDTYGIVLLSGVKYKKGGLVINETGLYFVYSKVYFRGQSCNNLPLSHKVYMRNSKYPQDLVMMEGKMMSYCTTGQMWARSSYLGAVFNLTSADHLYVNVSELSLVNFEESQTFFGLYKL
modifications: linker, FLAG tag
apoptotic cells ([1]; Jurkat, after 24 hour treatment): > 90%
apoptotic response ([2]; SH-SY5Y cells): failed to induce any detectable apoptotic response
increase of caspase 8 cleavage, treated versus untreated cells ([3]; Jurkat cells, loading normalized to equivalent caspase 8): more than 60%
induction of caspase 8 cleavage [10]: no increase
ERK activation [4]: triggered ERK activation
neurite outgrowth from DRGs ([5]; DRG explants): induced robust neurite growth
